# Literature values in patent US11724007B2, “Operating room coating applicator and method” (Ethicon, Inc., priority 2018, dated 2023).
# System: S. aureus
# Settings: measured in a suitable growth medium; described by Bhargava, H. et al, American Journal of Infection Control, June 1996
smiles,measurement,value
"Oc1cc(Cl)ccc1Oc1ccc(Cl)cc1Cl [triclosan, 2,4,4′-trichloro-2′-hydroxydiphenyl ether]",minimum inhibitory concentration (MIC) against S. aureus,0.01 ppm
